Data reported in patent US8877742B2, “Compounds” (GlaxoSmithKline Intellectual Property Limited, priority 2011, dated 2014).

biological target: T1, NOX2 in differentiated HL60 cells (Homo sapiens, UniProt P04839); experiment: HL60 cell-based assays: superoxide production by NOX2 (Oxyburst Assay 1 or L012 Assay 2); settings: PMA-stimulated differentiated HL60 cells; in at least one of the HL60 assays (Oxyburst fluorescence or L012 luminescence)
T1 construct: Differentiation of HL-60 cells to granulocytes increases NOX2 expression; endogenous in cells; host or cells: HL60 cells differentiated into neutrophil-like cells with 1.3% DMSO
T1 sequence (P04839 2-570 limits assumed): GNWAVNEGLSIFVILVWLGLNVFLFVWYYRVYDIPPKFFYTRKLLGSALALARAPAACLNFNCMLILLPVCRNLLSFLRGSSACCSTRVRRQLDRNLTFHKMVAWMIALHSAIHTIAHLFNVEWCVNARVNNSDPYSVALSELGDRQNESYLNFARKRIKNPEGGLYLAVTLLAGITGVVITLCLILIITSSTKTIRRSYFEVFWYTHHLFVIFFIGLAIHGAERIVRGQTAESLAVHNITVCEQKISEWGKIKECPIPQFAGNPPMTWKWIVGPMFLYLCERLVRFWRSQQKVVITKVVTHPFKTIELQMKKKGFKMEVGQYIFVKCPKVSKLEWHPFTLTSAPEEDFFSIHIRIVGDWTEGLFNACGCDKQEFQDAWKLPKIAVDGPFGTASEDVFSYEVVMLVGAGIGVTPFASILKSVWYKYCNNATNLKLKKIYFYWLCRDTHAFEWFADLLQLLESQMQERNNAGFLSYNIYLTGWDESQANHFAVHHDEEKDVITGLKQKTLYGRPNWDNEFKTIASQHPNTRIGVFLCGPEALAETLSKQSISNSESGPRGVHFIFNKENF
T1 sequence (P13498 2-195 partner limits assumed): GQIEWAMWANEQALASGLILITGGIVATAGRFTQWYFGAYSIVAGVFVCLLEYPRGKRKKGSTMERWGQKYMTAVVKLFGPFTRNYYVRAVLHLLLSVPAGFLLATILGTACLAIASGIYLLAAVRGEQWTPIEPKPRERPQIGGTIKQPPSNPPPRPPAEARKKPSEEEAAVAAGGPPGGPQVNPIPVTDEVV
Procedure: In the cell-based assay, superoxide production by NOX2 was measured in differentiated HL60 cells, a human myelomonocytic leukemia cell line, using either Oxyburst (Assay1) or L012 (Assay2). Differentiation of HL-60 cells to granulocytes increases NOX2 expression. The phorbol 12-myristate 13-acetate (PMA) was used to stimulate the production of superoxide in HL60 cells by activating protein kinase C, which then activated the NADPH oxidase (NOX) enzymes. Inhibition of NOX2 enzyme was detected by the reversal of fluorescence signal (Assay 1) or luminescence signal (Assay2). The control inhibitor used was diphenyleneiodonium chloride (DPI), a […] inhibitor capable of non-selectively inhibiting superoxide produced by NOX enzymes.
Assay 1: in this high-throughput screening assay, oxyburst green bovine serum albumin (BSA) was used to detect superoxide production in HL60 cells. Oxidation of Oxyburst green BSA by hydrogen peroxide as a result of the activation of NOX2 by PMA. Oxyburst green BSA fluorescence was measured at excitation 485 nm and emission 530 nm.
Assay 2: in this assay, a chemiluminescence probe, L-012 was used to detect superoxide production in HL60 cells. L-012 reacted with various types of reactive oxygen species generated by PMA-activated HL60 cells. Luminescence was measured using Tecan Infinite 500.
The HL60 cells were differentiated into neutrophil-like cells by adding 1.3% DMSO in the media for 3-7 days (Hua, J et al. (2000) Journal of Leukocyte Biology. 68:216-224). Iscove's Modified Dulbecco's Media (IMDM) with L-Glutamine and 25 mM HEPES buffer, Fetal Bovine Serum (FBS), Penicillin/Streptomycin, Oxyburst Green BSA, PBS, and HBSS buffer with Calcium Chloride and Magnesium Chloride were purchased from Invitrogen (Catalog #s: 12440-061, 10500-064, 15140-163, O-13291, 14190-250, and 14025-134 respectively). Phorbol 12-myristate 13-acetate (PMA), glucose, and CHAPS were purchased from Sigma (Catalog #s: 79346, D-9434, and C5070 respectively). Diphenyleneiodonium chloride (DPI) was purchased from Toronto Research Chemicals (Catalog #: D491500). L-012 was purchased from Wako Chemical (Catalog #: 120-04891). Dimethyl sulfoxide (DMSO) was purchased EMD Chemicals (VWR Catalog #: MX1456-1). Multidrop combi was purchased from Thermo Electron Corporation (Waltham, Mass., USA). Hummingbird nanoliter liquid dispenser was purchased from Genomics Solution (Ann Arbor, Mich., USA). 384 well low-volume plates and polypropylene 384 well clear plates were purchased from Greiner (Catalog #: 784076 and 781280 respectively). 96 well plate and 384 well plate black assay plates were purchased from Greiner (Catalog #: 655094 and 781098). 96 well plate for compound serial dilution was purchased from Corning (Catalog #: 9017). Acquest or Analyst fluorescence plate reader was purchased from LJL Biosystems/Molecular Devices (California, USA). Tecan Infinite 500 was purchased from Tecan (Switzerland).
HL60 cells were thawed and resuspended in Cells media. The cells were centrifuged at 1200 rpm for 5 minutes. Media was aspirated and the cells were resuspended in Cells buffer. The cells were counted and resuspended to 0.5×10^6 cells/mL.
Full inhibition controls were dispensed using 100 nL/well of 1 mM DPI in DMSO to column 18 of a 384 well plate. Compounds were dispensed using 100 nL/well. Full activity controls were dispensed using 100 nL/well of 4 uM PMA in DMSO. Oxyburst Green BSA was added to cell solution at 10 ug/mL. Using the Multidrop, 10 uL cell solution was added to the entire assay plate. The assay plate was incubated at room temperature for 100 minutes. Fluorescence reading was taken after 100 minutes at excitation 485 and emission 530 using 505 Dichroic on the Acquest or Analyst.
Serial dilution (1:3.16 fold serial dilution) of the compounds was performed in 100% DMSO in 96 well plate—Row B-H Column 1-10. Row A, Column 1-10 contained DPI serial dilution. Starting concentration was 10^−2 M (10 mM). […]

| IC50 | SMILES |
| --- | --- |
| > 100 µM | COc1cc(-c2cn(C)c3nccc(NS(=O)(=O)c4ccccc4)c23)cc(N2CCN(C)CC2)c1 [Example 28, N-(3-(3-methoxy-5-(4-methylpiperazin-1-yl)phenyl)-1-methyl-1H-pyrrolo[2,3-b]pyridin-4-yl)benzenesulfonamide] |
| > 100 µM | CC(C)N1CCN(c2cncc(-c3cn(C)c4nccc(NS(=O)(=O)c5cccc(Cl)c5)c34)c2)CC1 [Example 25, 3-chloro-N-(3-(5-(4-isopropylpiperazin-1-yl)pyridin-3-yl)-1-methyl-1H-pyrrolo[2,3-b]pyridin-4-yl)benzenesulfonamide] |
| > 100 µM | Cn1c(-c2cc[nH]n2)c(-c2cccc(N3CCCC3)c2)c2c(NS(=O)(=O)c3ccccc3)ccnc21 [Example 173, N-(1-methyl-2-(1H-pyrazol-3-yl)-3-(3-(pyrrolidin-1-yl)phenyl)-1H-pyrrolo[2,3-b]pyridin-4-yl)benzenesulfonamide] |
| > 100 µM | CN1Cc2ccc(-c3cn(C)c4nccc(NS(=O)(=O)c5ccccc5)c34)cc2C1 [Example 251, N-[1-methyl-3-(2-methyl-2,3-dihydro-1H-isoindol-5-yl)-1H-pyrrolo[2,3-b]pyridin-4-yl]benzenesulfonamide] |
| > 100 µM | COc1cc(-c2cn(C)c3nccc(NS(=O)(=O)c4ccccc4)c23)cc(N2CCN(C(C)C)CC2)c1 [Example 29, N-(3-(3-(4-isopropylpiperazin-1-yl)-5-methoxyphenyl)-1-methyl-1H-pyrrolo[2,3-b]pyridin-4-yl)benzenesulfonamide] |
| > 100 µM | CN1C(=O)COc2ccc(-c3cn(C)c4nccc(NS(=O)(=O)c5ccccc5)c34)cc21 [Example 39, N-(1-methyl-3-(4-methyl-3-oxo-3,4-dihydro-2H-benzo[b][1,4]oxazin-6-yl)-1H-pyrrolo[2,3-b]pyridin-4-yl)benzenesulfonamide] |
